Experimental findings from patent publication US20160206633A1, “dhS1P AND USE OF SAME AS AN ANTICANCER THERAPEUTIC AND IMMUNOMODULATOR” (Penn State Research Foundation, Inc., priority 2013, published 2016) are described below.

The assay relates to isolated IMCs (GEMM colonies, multipotent myeloid progenitor cells). The assay is described as follows: CFU-GEMM colony forming assay of isolated IMCs. To be noted: 5 μM, GEMM-supportive semi-solid media, 3 weeks of culture. The class given is cell-based, athymic nude mice. On the procedure:
(A) Splenic IMCs (Gr-1+CD11b+, also defined as MDSCs: myeloid-derived suppressor cells) were isolated from MDA-MB-231 tumor-bearing athymic nude mice and exposed to BSA, S1P (5 μM), or dhS1P (5 μM). Following 24-hour culture incubation, cells were labeled with specific antibodies and analyzed by multicolor flow cytometry (red: IMCs; blue: possible B-cells). (B) Splenic IMCs were isolated from MDA-MB-231 tumor-bearing athymic nude mice and cultured (5×10^4 cells/mL) in GEMM-supportive semi-solid media with BSA, S1P (5 μM), or dhS1P (5 μM). GEMM colonies (multipotent myeloid progenitor cells) were visualized and counted after 3 weeks of culture. ANOVA, *p<0.01 compared to no treatment or BSA-treatment, ***p<0.001 compared to S1P-treatment, n≧3. (C) Splenic hematopoietic progenitors (Lineage-Sca-1+CD117+) were isolated from MDA-MB-231 tumor-bearing athymic nude mice and exposed to BSA, S1P (5 μM), or dhS1P (5 μM). Following 24-hour culture incubation, cells were labeled with specific antibodies and analyzed by multicolor flow cytometry. […]
Isolated IMCs from the spleens of tumor-bearing athymic nude mice were cultured (5×10^4 cells/mL) in GEMM-supportive complete (mouse) methylcellulose media (R&D Systems, Minneapolis, Minn.), according to the manufacturer's instructions, with BSA, S1P (5 μM), or dhS1P (5 μM). GEMM colonies were visualized and counted after 3 weeks of culture.

Each structure is given as a SMILES string.

With `CCCCCCCCCCCCCCC[C@@H](O)[C@@H](N)COP(=O)(O)O` [dhS1P, dihydrosphingosine-1-phosphate], the CFU-GEMM colony formation entry is listed as “completely abrogated”.
